{"source": "patent US20220348615A1", "about": "“PRODUCTION OF BACTERIOCINS” (priority 2021, published 2022)", "key": {"[1]": {"system": "L. lactis NZ9000/pNZ-Pnis-mCherry^Lla", "test": "Nisin sensor strain mCherry fluorescence assay", "type": "cell-based, Lactococcus lactis", "conditions": "96-well microtiter plate assay", "procedure": "(B) A photo of the bacterial pellet taken after growth in GM17 medium containing 10 ng/ml nisin.\nBlack lines indicate absorbance at 214 nm in milli arbitrary units (mAU) and grey lines % of solution B in the elation buffer. Broken lines indicate the boundaries of the peak fractions collected for further analysis. (B) L. lactis NZ9000/pNZ-Pnis-mCherry^Lla was used to assay presence of nisin in different samples during purification of ammonium sulphate-precipitated supernatants of C. glutamicum CR099/pXMJ-nisZBTC^opt (SN: plain culture supernatant; precip: ammonium sulphate precipitated supernatant proteins; IEX: peak fraction of ion exchange chromatography; RP peak fraction of reverse phase chromatography. pos: 10 ng/ml nisin; +/−: activation by trypsin).\nThe sensitivity of the spot-on-lawn assay using C. glutamicum CR099 as an indicator strain is very low. […] The strain L. lactis NZ9000/pNZ-Pnis-mCherry^Lla contains the NisRK two-component system and harbours a pNZ-derives plasmid for expression the red-fluorescent protein mCherry from the Pnis promoter (FIG. 11A), which is activated by NisR in a strictly nisin-dependent manner. In this construct, the coding sequence of the mCherry protein is optimized for codon usage of L. lactis. The respective sensor strain results in reddish coloured bacteria after o/N growth in the presence of 10 ng mL^−1 (FIG. 11B). […]"}, "[2]": {"system": "C. glutamicum CR099", "test": "Resistance of C. glutamicum CR099 to antimicrobial peptides, endpoint growth in 96-well microtiter plates", "type": "cell-based, Corynebacterium glutamicum", "procedure": "Values are mean±standard deviation of n=4-7 independent experiments. (B) Growth of C. glutamicum CR099 in standard batch culture in 2xTY medium with 2% Glc in the presence (+PA-1) or absence (−PA-1) of 2.0 μg/mL pediocin. Values are mean±standard deviation of n=4 independent experiments. Growth rates were calculated during exponential growth phase. (C) Growth inhibition of L. monocytogenes EGDe::pIMK2 by supernatants of C. glutamicum CR099 in 2xTY medium with 2% Glc plus 2 μg/mL pure pediocin (+CR099). Supernatants were collected during the experiment shown in (B) at the indicated time-points. As controls, pediocin was incubated under the same conditions in sterile medium (−CR099). Values are OD600 of the indicator strain L. monocytogenes EGDe in a growth assay at the indicated dilutions of the samples and are mean±standard deviation of n=3 independent experiments. […]\nThe receptors for bacteriocins of the pediocin family on target organisms are the IIC and IID subunits of a sub-family of mannose-specific phosphotransferase systems (PTS^Man; PMID: 19477899). […] To corroborate this assumption, the resistance of C. glutamicum CR099 against different antimicrobial peptides was determined using an endpoint measurement of growth in 96-well microtiter plates (FIG. 2A)."}, "[3]": {"system": "L. monocytogenes EGDe::pIMK2", "test": "Microtiter plate growth inhibition assay, L. monocytogenes indicator", "type": "cell-based, Listeria monocytogenes", "conditions": "serial 2-fold dilutions of pediocin standard", "excerpt": "(§1) (B) Growth inhibition of L. monocytogenes EGDe::pIMK2 by supernatants of P. acidilactici 347 (Paci) collected in early stationary growth phase at the indicated dilution. Values are mean±standard deviation of at least n=3 independent experiments per condition. Dilution series sterile H2O (A) or MRS medium (B) were used as negative controls. Hatched bars indicate growth of the indicator strain without addition of diluted supernatant or pediocin, i.e. maximum growth. The bottom and top lines indicate OD600 of the positive (i.e. complete inhibition of growth) or negative (i.e. in the absence of an antimicrobial peptide), respectively. The broken middle line represents growth inhibition of 50%, i.e. the threshold to calculate bacteriocin units.\nPediocin PA-1 is a bacteriocin with potent antimicrobial activity against a range of Gram-positive microorganisms including important human pathogens such as Listeria monocytogenes. As a first step towards recombinant production of pediocin PA-1, a growth-dependent assay was established using L. monocytogenes EGDe::pIMK2 or L. innocua LMG2785::pIMK2 as indicator strains, and commercially available, purified pediocin (FIG. 1A). […]\n(§2) To validate the assay, anti-microbial activity in supernatants of P. acidilactici 347, a natural producer of pediocin was measured following growth in MRS medium to early stationary growth phase (FIG. 1B). […]"}, "[4]": {"system": "C. glutamicum CR099", "test": "Growth of C. glutamicum CR099 in standard batch culture with pediocin", "type": "cell-based, Corynebacterium glutamicum", "conditions": "2 μg mL^−1 pediocin, baffled Erlenmeyer flask, 2xTY with 2% Glc", "procedure": "(§3) Values are mean±standard deviation of n=4-7 independent experiments. (B) Growth of C. glutamicum CR099 in standard batch culture in 2xTY medium with 2% Glc in the presence (+PA-1) or absence (−PA-1) of 2.0 μg/mL pediocin. Values are mean±standard deviation of n=4 independent experiments. Growth rates were calculated during exponential growth phase. (C) Growth inhibition of L. monocytogenes EGDe::pIMK2 by supernatants of C. glutamicum CR099 in 2xTY medium with 2% Glc plus 2 μg/mL pure pediocin (+CR099). Supernatants were collected during the experiment shown in (B) at the indicated time-points. As controls, pediocin was incubated under the same conditions in sterile medium (−CR099). Values are OD600 of the indicator strain L. monocytogenes EGDe in a growth assay at the indicated dilutions of the samples and are mean±standard deviation of n=3 independent experiments. In all graphs, the bottom and top lines indicate OD600 of the positive (i.e. complete inhibition of growth) or negative (i.e. in the absence of an antimicrobial peptide), respectively. The broken middle lines represent growth inhibition of 50%, i.e. the threshold to calculate bacteriocin units.\nBy contrast, C. glutamicum CR099 was able to grow in the presence of at least 12.5 μg mL^−1 pediocin PA-1."}, "[5]": {"system": "L. monocytogenes EGDe::pIMK2", "test": "Pediocin activity remaining in culture supernatant during C. glutamicum CR099 cultivation", "type": "cell-based, Listeria monocytogenes", "procedure": "as §3\nAdditionally, activity of pediocin was measured in the culture supernatant at select timepoints during the cultivation. […] The observed reduction in activity was therefore considered to be related to adsorption of the positively charged pediocin to the negative surface of bacteria and, at later timepoints, to oxidative inactivation."}, "[6]": {"system": "L. innocua LMG2785::pIMK2", "test": "Microtiter plate growth inhibition assay, L. innocua indicator", "type": "cell-based, Listeria innocua", "conditions": "serial 2-fold dilutions of pediocin standard", "excerpt": "as §1\n2h after inoculation Glc (2% w/v) and IPTG (0.1 mM) were added to induce production of pediocin (B) Growth inhibition of L. innocua LMG2785::pIMK2 by different dilutions of supernatants of C. glutamicum CR099/pEKEx2-pedACD (pedACD) collected at the indicated timepoints during the growth experiment shown in (A). All values are mean±standard deviation of n=3 independent experiments. […]\nas §2"}}, "note": "Values joined by “and” are separate entries in the source; they are usually repeats but may differ in a detail not shown here. Equal values may be shown once.", "data": [{"substance": "nisin", "values": [{"measurement": "limit of detection of the sensor strain for active nisin", "setting": "[1]", "result": "0.2 to 0.5 ng/mL and 0.25 to 0.5 ng/mL"}, {"measurement": "concentration above which growth of C. glutamicum CR099 is inhibited", "setting": "[2]; preliminary experiments", "result": "> 100", "unit": "ng/mL"}]}, {"substance": "pediocin PA-1 (KYYGNGVTCGKHSCSVDWGKATTCIINNGAMAWATGGHQGNHKC; listed as Pediococcus acidilactici) [commercially available, purified Class IIA bacteriocin]", "values": [{"measurement": "minimal concentration to completely inhibit growth of the indicator strain", "setting": "[3]", "result": 39, "unit": "ng/mL"}, {"measurement": "effect on final optical density and growth rate", "setting": "[4]", "result": "did not affect final optical density and growth rate"}, {"measurement": "concentration in the presence of which C. glutamicum CR099 was able to grow", "setting": "[2]; 96-well microtiter plates, endpoint growth", "result": "at least 12.5 μg mL^−1"}, {"measurement": "pediocin activity in culture supernatant, initial", "setting": "[5]; 2 μg/mL pediocin in growing C. glutamicum CR099 culture, start", "result": 2560, "unit": "BU mL^−1"}, {"measurement": "pediocin activity after 24 hours in control incubation", "setting": "[5]; 2xTY without bacteria, 24 hours", "result": "the same reduction was observed"}, {"measurement": "pediocin activity in culture supernatant after slight initial reduction", "setting": "[5]; growing C. glutamicum CR099 culture, stable for several hours", "result": 1280, "unit": "BU mL^−1"}, {"measurement": "pediocin activity in culture supernatant after 24 hours", "setting": "[5]; in the presence of C. glutamicum CR099, 24 hours", "result": 160, "unit": "BU mL^−1"}, {"measurement": "minimal concentration to completely inhibit growth of the indicator strain", "setting": "[6]", "result": 39, "unit": "ng/mL"}]}]}
